Measured values as given in patent publication US11098342B2, “Time lapse sequencing: a convertible-nucleoside approach to enrichment-free analysis of RNA dynamics” (Yale University, priority 2017, dated 2021).

System: MEF cells
Assay: MEF cell viability, MTT Cell Proliferation Assay
Assay type: cell-based, mouse
Conditions: MEF cells treated with s^4U (0-1 mM) for 1 hour; MTT assay in triplicate
Description: FIG. 9A depicts exemplary MEF cell viability assays with increasing concentrations of s^4U (0, 50, 100, 500 and 1000 μM). FIG. 9B depicts exemplary MEF cell viability assays with increasing concentrations of Triton-X-100 (0, 0.5, 1, and 2%). MEF cells were plated at 10^6 cells/ml and allowed to rest overnight. An MTT assay (ATTC MTT Cell Proliferation Assay kit) was performed in triplicate after indicated treatment for 1 h. After treatment and lysis, absorbance at 570 nm was measured. FIG. 9C depicts an exemplary MA-plot of expression levels in RNA-seq in MEF cells treated with 1 mM s^4U for 1 hour, compared to cells without s^4U treatment. […] Each condition was tested with two replicates. Conditions are: ++, with s^4U treatment and chemical treatment; +−, with s^4U treatment but no chemical treatment; −+, no s^4U treatment but with chemical treatment; −−, neither s^4U treatment nor chemical treatment.
MEF cells were grown at 37° C. in DMEM containing 10% FBS and 1% P/S. Cells were plated at 10^6 cells/mL in a 96-well microtiter plate and allowed to recover overnight. Cells were then treated in triplicate with increasing concentrations of s^4U (0-1 mM) for 1 hour, and the ATCC MTT Cell Proliferation Assay kit was used according to manufacturer's instructions to assess cell viability.

SMILES: O=c1[nH]c(=S)ccn1[C@@H]1O[C@H](CO)[C@@H](O)[C@H]1O [s^4U, 4-thiouridine]
- s^4U toxicity (cell viability, absorbance at 570 nm): no s^4U toxicity was observed
